Laboratory results published in the NIST ThermoML archive (doi:10.1016/j.jct.2015.12.028).

Conditions: Liquid, light scattering

CCCCCC(=O)OCC [ethyl hexanoate]
Conditions | speed of sound [m/s]
291.92 K, 7170 kPa | 1273.2
292.04 K, 8640 kPa | 1284
292.14 K, 10010 kPa | 1290.3
293.41 K, 5690 kPa | 1255
293.44 K, 4180 kPa | 1247.7
294.64 K, 100 kPa | 1224.2
294.64 K, 1100 kPa | 1230.1
294.84 K, 2620 kPa | 1239
301.5 K, 2670 kPa | 1205.7
301.55 K, 1070 kPa | 1195.5
301.56 K, 4130 kPa | 1214.4
301.58 K, 7090 kPa | 1236.9
301.6 K, 5650 kPa | 1225.7
301.63 K, 8670 kPa | 1245.9
301.73 K, 10030 kPa | 1258.6
302.55 K, 100 kPa | 1189.8
313.14 K, 9980 kPa | 1220.5
313.24 K, 4030 kPa | 1185
313.24 K, 8510 kPa | 1215.6
313.25 K, 7000 kPa | 1205.4
313.26 K, 5550 kPa | 1196.2
313.28 K, 2510 kPa | 1175.2
313.3 K, 100 kPa | 1155.3
313.3 K, 1020 kPa | 1160.8
323.18 K, 10000 kPa | 1187.7
323.28 K, 8470 kPa | 1179.1
323.31 K, 2480 kPa | 1142.4
323.31 K, 4010 kPa | 1149.9
323.33 K, 6950 kPa | 1170
323.35 K, 5480 kPa | 1162
323.36 K, 100 kPa | 1120.8
323.36 K, 1020 kPa | 1128.5
332.94 K, 8560 kPa | 1145.7
332.97 K, 6950 kPa | 1135.6
332.97 K, 10050 kPa | 1156.4
332.99 K, 100 kPa | 1086.3
332.99 K, 1060 kPa | 1090.1
333.01 K, 2560 kPa | 1105.9
333.04 K, 5580 kPa | 1125.1
333.07 K, 4030 kPa | 1115.9
342.65 K, 2510 kPa | 1072.2
342.67 K, 100 kPa | 1051.7
342.67 K, 1000 kPa | 1054.8
342.69 K, 3940 kPa | 1082.2
342.71 K, 5500 kPa | 1094.5
342.72 K, 8500 kPa | 1109.7
342.74 K, 7030 kPa | 1099.1
342.82 K, 9990 kPa | 1124.8
352.33 K, 100 kPa | 1017.1
352.33 K, 1100 kPa | 1023
352.33 K, 2540 kPa | 1038.4
352.35 K, 4000 kPa | 1050.4
352.41 K, 5530 kPa | 1061
352.42 K, 7020 kPa | 1068.2
352.43 K, 8490 kPa | 1080.4
352.73 K, 10060 kPa | 1093.6
362.56 K, 100 kPa | 982.46
362.56 K, 1000 kPa | 987.04
362.56 K, 4010 kPa | 1015.1
362.58 K, 8530 kPa | 1045.7
362.6 K, 7060 kPa | 1033.4
362.62 K, 5540 kPa | 1026
362.64 K, 2530 kPa | 1000.9
362.68 K, 10100 kPa | 1061.2
372.53 K, 2500 kPa | 968.37
372.54 K, 100 kPa | 947.78
372.54 K, 1040 kPa | 952.55
372.55 K, 7020 kPa | 1007.7
372.56 K, 8530 kPa | 1016.3
372.57 K, 5560 kPa | 998.43
372.59 K, 4050 kPa | 985.39
372.86 K, 9900 kPa | 1029.5
382.71 K, 8540 kPa | 980
382.73 K, 7020 kPa | 971.25
382.74 K, 100 kPa | 913.07
382.74 K, 1000 kPa | 922.72
382.74 K, 5540 kPa | 962.72
382.75 K, 4010 kPa | 952.21
382.76 K, 2560 kPa | 934.6
382.91 K, 9900 kPa | 997.44
392.4 K, 5520 kPa | 933.47
392.41 K, 7010 kPa | 940.67
392.42 K, 8480 kPa | 949.6
392.47 K, 100 kPa | 878.33
392.47 K, 1030 kPa | 884.09
392.47 K, 4000 kPa | 919.08
392.51 K, 2490 kPa | 902.62
392.92 K, 9950 kPa | 966.97
402 K, 6970 kPa | 908.77
402.03 K, 100 kPa | 843.55
402.03 K, 1040 kPa | 854.91
402.06 K, 2470 kPa | 868.02
402.06 K, 4030 kPa | 883.34
402.08 K, 8510 kPa | 919.03
402.1 K, 5510 kPa | 899.47
402.68 K, 10070 kPa | 936.79
412.72 K, 100 kPa | 808.74
412.72 K, 1040 kPa | 815.66
412.8 K, 2570 kPa | 833.03
412.88 K, 5600 kPa | 865.88
412.88 K, 7020 kPa | 871.35
412.89 K, 8470 kPa | 886.33
412.91 K, 4020 kPa | 848.61
412.99 K, 10030 kPa | 903.23
423.69 K, 9950 kPa | 868.97
423.99 K, 8470 kPa | 850.59
424.01 K, 6980 kPa | 840.66
424.04 K, 5530 kPa | 826.28
424.11 K, 2540 kPa | 796.64
424.11 K, 4010 kPa | 811.39
424.14 K, 100 kPa | 773.9
424.14 K, 1010 kPa | 774.99
432.74 K, 8510 kPa | 826.01
432.77 K, 7030 kPa | 813.37
432.78 K, 5380 kPa | 798.35
432.84 K, 9890 kPa | 842.12
432.92 K, 3990 kPa | 780.75
433.17 K, 100 kPa | 739.02
433.17 K, 1030 kPa | 746.97
433.17 K, 2510 kPa | 762.64
442.85 K, 5610 kPa | 765.41
442.88 K, 4100 kPa | 748.87
442.9 K, 930 kPa | 715.97
442.9 K, 2480 kPa | 729.4
442.91 K, 6990 kPa | 777.33
442.92 K, 8480 kPa | 791.24
452.58 K, 5540 kPa | 735.89
452.61 K, 7110 kPa | 747.91
452.63 K, 8380 kPa | 764.36
452.65 K, 4080 kPa | 717.86
452.91 K, 2540 kPa | 695.59
452.92 K, 1040 kPa | 677.79
452.93 K, 10000 kPa | 781.61
462.7 K, 7080 kPa | 715.1
462.71 K, 4130 kPa | 682.75
462.71 K, 8400 kPa | 730.25
462.72 K, 5530 kPa | 700.28
462.73 K, 2510 kPa | 660.98
462.91 K, 10060 kPa | 751.22
462.97 K, 960 kPa | 644.49
471.93 K, 7050 kPa | 686.17
471.94 K, 5520 kPa | 670.94
471.95 K, 8260 kPa | 703.27
472.03 K, 3960 kPa | 653.08
472.05 K, 10050 kPa | 723.5
472.29 K, 2600 kPa | 630.72
472.41 K, 950 kPa | 612.74

Conditions | speed of sound [m/s]
294.37 K | 1220.1
301.55 K | 1191
313.34 K | 1152.7
324.26 K | 1115.1
333.16 K | 1077.6
343.2 K | 1046.1
353.08 K | 1010
363.12 K | 975
373.14 K | 942
383.76 K | 905.4
393.3 K | 870.1
402.64 K | 834.9
413.59 K | 800.8
423.96 K | 764
433.99 K | 730.3
443.55 K | 697.6
452.9 K | 661
463.1 K | 628.8
473.82 K | 592.4
